ChEMBL document CHEMBL2380269, “Conformationally restricted homotryptamines. Part 6: indole-5-cycloalkyl methylamines as selective serotonin reuptake inhibitors” (Bioorg Med Chem Lett, 2013)

Tests used:
HEK293 [1] = assay: Ratio of IC50 for human NET expressed in HEK293 cell membranes to IC50 for human SERT expressed in HEK293 cell membranes; type: cell-based
HEK293 [2] = assay: Ratio of IC50 for human DAT expressed in HEK293 cell membranes to IC50 for human SERT expressed in HEK293 cell membranes; type: cell-based
[3] = biological target: T1, Sodium-dependent dopamine transporter (Homo sapiens, UniProt Q01959); assay: Displacement of [3H]WIN-35428 form human DAT expressed in HEK293 cell membranes at 1 uM
T1 sequence (Q01959 whole entry): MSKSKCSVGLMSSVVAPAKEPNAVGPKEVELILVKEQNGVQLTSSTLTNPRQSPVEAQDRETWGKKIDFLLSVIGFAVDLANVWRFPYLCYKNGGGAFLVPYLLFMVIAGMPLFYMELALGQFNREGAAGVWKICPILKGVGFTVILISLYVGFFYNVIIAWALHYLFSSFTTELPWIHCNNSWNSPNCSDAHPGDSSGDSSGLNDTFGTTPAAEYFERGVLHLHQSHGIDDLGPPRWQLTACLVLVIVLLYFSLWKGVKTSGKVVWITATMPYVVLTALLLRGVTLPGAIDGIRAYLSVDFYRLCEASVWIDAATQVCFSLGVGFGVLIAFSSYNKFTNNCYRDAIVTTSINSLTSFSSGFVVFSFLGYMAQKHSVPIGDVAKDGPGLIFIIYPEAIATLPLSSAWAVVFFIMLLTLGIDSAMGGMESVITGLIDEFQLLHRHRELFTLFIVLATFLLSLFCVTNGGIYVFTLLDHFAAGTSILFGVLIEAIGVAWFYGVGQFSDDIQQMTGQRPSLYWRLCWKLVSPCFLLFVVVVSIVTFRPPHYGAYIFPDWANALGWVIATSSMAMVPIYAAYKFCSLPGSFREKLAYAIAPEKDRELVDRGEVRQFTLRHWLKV

[4] = biological target: T2, Sodium-dependent noradrenaline transporter (Homo sapiens, UniProt P23975); assay: Displacement of [3H]nisoxetine from human NET expressed in HEK293 cell membranes at 1 uM
T2 sequence (P23975 whole entry): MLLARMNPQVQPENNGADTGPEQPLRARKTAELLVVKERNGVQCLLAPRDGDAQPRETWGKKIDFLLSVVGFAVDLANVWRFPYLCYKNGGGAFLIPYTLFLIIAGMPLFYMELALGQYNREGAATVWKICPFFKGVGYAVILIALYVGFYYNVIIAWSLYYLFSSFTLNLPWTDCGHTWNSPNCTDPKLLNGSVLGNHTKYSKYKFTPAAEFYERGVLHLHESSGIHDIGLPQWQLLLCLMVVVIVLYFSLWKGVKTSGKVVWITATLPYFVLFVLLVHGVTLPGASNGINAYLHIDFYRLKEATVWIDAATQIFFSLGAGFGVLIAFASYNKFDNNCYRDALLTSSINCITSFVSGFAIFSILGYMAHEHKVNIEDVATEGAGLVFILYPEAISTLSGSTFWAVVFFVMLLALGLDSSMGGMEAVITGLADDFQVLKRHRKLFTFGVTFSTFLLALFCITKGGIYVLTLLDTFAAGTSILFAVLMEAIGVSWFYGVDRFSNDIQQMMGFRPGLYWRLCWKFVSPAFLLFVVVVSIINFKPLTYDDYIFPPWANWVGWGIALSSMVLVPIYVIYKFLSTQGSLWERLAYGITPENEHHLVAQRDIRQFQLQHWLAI

[5] = biological target: Sodium-dependent serotonin transporter (Homo sapiens, UniProt P31645); assay: Displacement of [3H]citalopram from human SERT expressed in HEK293 cell membranes
Sequence of Sodium-dependent serotonin transporter (P31645 whole entry): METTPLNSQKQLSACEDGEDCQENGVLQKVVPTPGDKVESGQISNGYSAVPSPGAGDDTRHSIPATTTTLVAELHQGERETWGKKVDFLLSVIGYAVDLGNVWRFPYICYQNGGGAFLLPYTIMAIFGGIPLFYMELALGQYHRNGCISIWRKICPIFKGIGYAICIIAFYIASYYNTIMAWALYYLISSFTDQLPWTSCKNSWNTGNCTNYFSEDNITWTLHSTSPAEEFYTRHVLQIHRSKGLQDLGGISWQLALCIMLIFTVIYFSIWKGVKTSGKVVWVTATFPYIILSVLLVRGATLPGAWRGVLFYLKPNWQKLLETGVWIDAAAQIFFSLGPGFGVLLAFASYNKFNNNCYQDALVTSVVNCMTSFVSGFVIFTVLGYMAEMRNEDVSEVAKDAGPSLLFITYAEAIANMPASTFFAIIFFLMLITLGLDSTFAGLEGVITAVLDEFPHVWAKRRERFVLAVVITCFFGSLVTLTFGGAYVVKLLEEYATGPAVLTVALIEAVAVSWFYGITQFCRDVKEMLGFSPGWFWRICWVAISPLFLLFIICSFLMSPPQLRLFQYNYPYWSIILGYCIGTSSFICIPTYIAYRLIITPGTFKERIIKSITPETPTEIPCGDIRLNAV

[6] = biological target: T1, Sodium-dependent dopamine transporter; assay: Displacement of [3H]WIN-35428 form human DAT expressed in HEK293 cell membranes
[7] = biological target: T2, Sodium-dependent noradrenaline transporter; assay: Displacement of [3H]nisoxetine from human NET expressed in HEK293 cell membranes

| Compound | inhibition [3] [%] | inhibition [4] [%] | IC50 [5] [nM] | IC50 [6] [nM] | IC50 [7] [nM] | Ratio IC50 (HEK293 [1]) | Ratio IC50 (HEK293 [2]) |
| --- | --- | --- | --- | --- | --- | --- | --- |
| CN(C)C[C@H]1C[C@@H]1Cc1ccc2[nH]cc(C#N)c2c1 (racemic) | 17 | 25 | 97 | – | – | > 100 | > 100 |
| CN(C)C[C@@H]1CCC[C@H]1c1ccc2c(c1)c(C#N)cn2C (racemic) | – | – | 570 | – | – | – | – |
| CN(Cc1ccccc1)C[C@@H]1CCC[C@H]1c1ccc2[nH]cc(C#N)c2c1 (racemic) | – | – | 140 | – | – | – | – |
| N#Cc1c[nH]c2ccc([C@@H]3CCC[C@H]3CN3CCCC3)cc12 (racemic) | – | – | 300 | – | – | – | – |
| CN(C)C[C@H]1C[C@@H]1c1c[nH]c2ccc(C#N)cc12 | – | – | 0.56 | – | – | – | – |
| CCNC[C@@H]1CCC[C@H]1c1ccc2[nH]cc(C#N)c2c1 (racemic) | – | – | 260 | – | – | – | – |
| CN(C)C[C@H]1CCC[C@H]1c1c[nH]c2ccc(C#N)cc12 | – | – | 1.1 | – | – | – | – |
| CN(C)C[C@@H]1C[C@H]1c1ccc2[nH]ccc2c1 (racemic) | – | – | > 1000 | – | – | – | – |

Further lines, with some results ahead:

| inhibition [3] [%] | inhibition [4] [%] | IC50 [5] [nM] | IC50 [6] [nM] | IC50 [7] [nM] | Compound | Ratio IC50 (HEK293 [1]) | Ratio IC50 (HEK293 [2]) |
| --- | --- | --- | --- | --- | --- | --- | --- |
| 53 | 78 | 64 | 660 | 510 | CNC[C@H]1CCC[C@H]1c1ccc2[nH]cc(C#N)c2c1 (racemic) | 10 | 10 |
| 39 | 55 | 6 | – | – | CN(C)C[C@@H]1C[C@H]1c1ccc2[nH]cc(C#N)c2c1 (racemic) | > 100 | > 100 |
| – | – | 200 | – | – | CCN(C)C[C@@H]1CCC[C@H]1c1ccc2[nH]cc(C#N)c2c1 (racemic) | – | – |
| 56 | 68 | 18 | – | – | CN(C)C[C@H]1CCC[C@H]1c1ccc2[nH]cc(C#N)c2c1 (racemic) | > 100 | > 100 |
| – | – | 710 | – | – | CCN(CC)C[C@@H]1CCC[C@H]1c1ccc2[nH]cc(C#N)c2c1 (racemic) | – | – |
| 50 | -1.7 | 3.8 | – | 8200 | CN(C)C[C@@H]1CCC[C@H]1c1ccc2[nH]cc(C#N)c2c1 (racemic) | > 100 | > 100 |
| 49 | 16 | 4.3 | 750 | 3700 | CNC[C@@H]1CCC[C@H]1c1ccc2[nH]cc(C#N)c2c1 (racemic) | > 100 | > 100 |
